Values belong to the compound of their own block, whether it stands above or below them. Active and inactive are the calls of the source.
Key:
[1] = molecular target: Delta-type opioid receptor (Homo sapiens, UniProt P41143); assay: Counterscreen for agonists of heterodimerization of the mu 1 (OPRM1) and delta 1 (OPRD1) opioid receptors: Luminescence-based cell-based high throughput dose response assay to identify agonists of OPRD1 homodimerization. [Related pubchem assays (depositor defined):AID504326, AID504355, AID504692, AID504904, AID504905]; assay type: functional
Chain of Delta-type opioid receptor (P41143 whole entry): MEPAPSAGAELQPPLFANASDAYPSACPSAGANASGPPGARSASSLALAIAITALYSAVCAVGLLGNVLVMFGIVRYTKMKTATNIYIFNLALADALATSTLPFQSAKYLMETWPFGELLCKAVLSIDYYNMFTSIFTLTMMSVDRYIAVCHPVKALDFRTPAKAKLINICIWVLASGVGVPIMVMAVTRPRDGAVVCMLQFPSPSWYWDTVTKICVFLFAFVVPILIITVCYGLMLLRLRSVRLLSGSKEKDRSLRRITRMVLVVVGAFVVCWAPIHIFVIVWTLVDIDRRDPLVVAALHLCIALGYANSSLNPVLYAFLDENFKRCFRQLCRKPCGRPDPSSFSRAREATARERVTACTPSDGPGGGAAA

Mu-type opioid receptor = Mu-type opioid receptor (Homo sapiens, UniProt P35372); assay: Counterscreen for agonists of heterodimerization of the mu 1 (OPRM1) and delta 1 (OPRD1) opioid receptors: Luminescence-based cell-based high throughput dose response assay to identify agonists of OPRM1 homodimerization.; assay type: functional;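 note: U2OS cells expressing OPRM1 and beta-arrestin as split beta-galactosidase partners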
Chain of Mu-type opioid receptor (P35372 whole entry): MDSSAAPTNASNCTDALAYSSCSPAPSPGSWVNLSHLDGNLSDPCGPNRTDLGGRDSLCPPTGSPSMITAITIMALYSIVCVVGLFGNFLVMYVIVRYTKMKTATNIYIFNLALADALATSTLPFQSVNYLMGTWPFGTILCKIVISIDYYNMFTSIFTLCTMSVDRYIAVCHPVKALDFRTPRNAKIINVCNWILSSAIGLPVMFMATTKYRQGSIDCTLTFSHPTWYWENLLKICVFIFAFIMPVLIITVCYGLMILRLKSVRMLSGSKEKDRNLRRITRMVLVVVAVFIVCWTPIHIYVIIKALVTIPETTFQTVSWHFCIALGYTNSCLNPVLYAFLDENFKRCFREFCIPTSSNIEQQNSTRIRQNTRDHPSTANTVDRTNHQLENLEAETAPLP

[2] = molecular target: 5-hydroxytryptamine receptor 5A (Homo sapiens, UniProt P47898); assay: Counterscreen for agonists of OPRM1-OPRD1 heterodimerization: luminescence-based cell-based high throughput dose response assay to identify agonists of 5-hydroxytryptamine (serotonin) 5A receptor (HTR5A). [Related pubchem assays (depositor defined):AID504326, AID504355, AID504692, AID504904, AID504905]; assay type: functional
Chain of 5-hydroxytryptamine receptor 5A (P47898 whole entry): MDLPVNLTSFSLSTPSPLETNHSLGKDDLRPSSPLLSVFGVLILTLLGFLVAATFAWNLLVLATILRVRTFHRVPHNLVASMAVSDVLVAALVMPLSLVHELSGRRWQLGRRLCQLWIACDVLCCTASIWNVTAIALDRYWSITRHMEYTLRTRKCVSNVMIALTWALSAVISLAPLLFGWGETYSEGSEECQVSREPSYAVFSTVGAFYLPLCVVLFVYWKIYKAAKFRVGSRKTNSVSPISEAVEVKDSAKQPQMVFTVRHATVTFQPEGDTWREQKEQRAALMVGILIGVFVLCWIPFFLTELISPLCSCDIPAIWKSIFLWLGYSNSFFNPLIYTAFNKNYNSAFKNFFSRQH

Candida albicans = assay: fluconazole-resistant Candida strain growth inhibitors – CaCi-8 strain, dry powder, set 4, dose response (AID 488950); assay type: functional, organism-based
Cysteine protease ATG4B = Cysteine protease ATG4B (Homo sapiens, UniProt Q9Y4P1); assay type: functional;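 note: Fluorescence-based dose-response confirmation assay measuring inhibition of ATG4B activity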
Chain of Cysteine protease ATG4B (Q9Y4P1 whole entry): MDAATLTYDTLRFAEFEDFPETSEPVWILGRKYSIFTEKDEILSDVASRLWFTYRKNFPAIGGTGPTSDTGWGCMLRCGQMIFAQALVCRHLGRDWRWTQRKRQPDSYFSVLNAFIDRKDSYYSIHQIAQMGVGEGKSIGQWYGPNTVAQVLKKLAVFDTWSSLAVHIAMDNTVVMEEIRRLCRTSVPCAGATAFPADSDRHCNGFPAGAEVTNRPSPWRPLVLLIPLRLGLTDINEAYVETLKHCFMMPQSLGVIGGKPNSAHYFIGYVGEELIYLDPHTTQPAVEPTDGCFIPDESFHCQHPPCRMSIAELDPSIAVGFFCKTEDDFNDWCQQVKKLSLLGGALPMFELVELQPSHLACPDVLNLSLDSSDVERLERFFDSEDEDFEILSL

Phospholipase A2 = Phospholipase A2 (Homo sapiens, UniProt P04054); assay type: functional;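 note: confirmatory dose-response counterscreen on phospholipase A2, testing hits that came from an ultra-high-throughput screen for ATG4B inhibitors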
Chain of Phospholipase A2 (P04054 whole entry): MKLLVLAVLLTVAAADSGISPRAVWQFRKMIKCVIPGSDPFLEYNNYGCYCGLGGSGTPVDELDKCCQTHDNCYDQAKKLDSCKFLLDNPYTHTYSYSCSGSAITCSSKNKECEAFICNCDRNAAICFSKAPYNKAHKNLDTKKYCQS

[3] = molecular target: T1, DNA repair protein RAD52 homolog (Homo sapiens, UniProt P43351); assay type: functional, biochemical
T1 sequence (P43351 whole entry): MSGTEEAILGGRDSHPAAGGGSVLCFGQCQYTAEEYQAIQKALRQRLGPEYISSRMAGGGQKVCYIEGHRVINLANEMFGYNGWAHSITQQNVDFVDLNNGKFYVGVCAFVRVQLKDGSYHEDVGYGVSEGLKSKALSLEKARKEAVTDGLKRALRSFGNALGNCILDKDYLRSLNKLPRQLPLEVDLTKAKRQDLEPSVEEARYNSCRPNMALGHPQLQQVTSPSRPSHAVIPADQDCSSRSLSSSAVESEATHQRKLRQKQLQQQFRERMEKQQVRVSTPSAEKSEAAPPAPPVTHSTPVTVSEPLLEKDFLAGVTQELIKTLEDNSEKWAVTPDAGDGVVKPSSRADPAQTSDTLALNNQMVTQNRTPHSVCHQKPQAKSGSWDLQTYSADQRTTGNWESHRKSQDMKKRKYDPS

Protein skinhead-1 = molecular target: T2, Protein skinhead-1 (Caenorhabditis elegans, UniProt P34707); assay type: functional
T2 sequence (P34707 whole entry): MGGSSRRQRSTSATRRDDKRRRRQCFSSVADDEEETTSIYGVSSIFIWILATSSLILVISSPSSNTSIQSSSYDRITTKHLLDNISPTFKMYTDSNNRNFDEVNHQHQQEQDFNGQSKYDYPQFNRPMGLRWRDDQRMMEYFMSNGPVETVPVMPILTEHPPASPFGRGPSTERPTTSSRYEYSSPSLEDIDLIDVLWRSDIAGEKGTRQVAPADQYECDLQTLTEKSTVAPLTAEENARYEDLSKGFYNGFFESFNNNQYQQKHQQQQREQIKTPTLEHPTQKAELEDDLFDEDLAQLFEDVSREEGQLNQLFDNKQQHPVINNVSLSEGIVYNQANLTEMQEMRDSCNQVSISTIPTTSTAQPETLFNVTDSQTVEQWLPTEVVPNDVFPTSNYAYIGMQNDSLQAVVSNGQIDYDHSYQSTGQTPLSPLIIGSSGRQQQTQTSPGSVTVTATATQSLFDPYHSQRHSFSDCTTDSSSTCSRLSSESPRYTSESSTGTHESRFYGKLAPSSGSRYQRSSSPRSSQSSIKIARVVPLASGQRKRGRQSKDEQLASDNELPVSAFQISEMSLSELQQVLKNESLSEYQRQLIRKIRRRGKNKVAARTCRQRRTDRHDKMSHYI

Bcl-2-related protein A1 = molecular target: T3, Bcl-2-related protein A1 (Mus musculus, UniProt Q07440); assay type: functional;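 note: confirmatory dose–response counterscreen on Bfl-1, used to check hits from a UBC13 polyubiquitin inhibitor campaign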
T3 sequence (Q07440 whole entry): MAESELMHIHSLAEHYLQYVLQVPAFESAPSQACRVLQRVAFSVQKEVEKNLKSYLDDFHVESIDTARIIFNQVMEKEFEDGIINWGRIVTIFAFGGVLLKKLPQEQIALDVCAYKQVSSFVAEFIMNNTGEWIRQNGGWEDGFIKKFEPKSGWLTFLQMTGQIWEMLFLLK

[4] = fluconazole-exposed Candida albicans growth modulators – fluorescence, retest, confirmation (AID 2467); assay type: functional, cell-based
[5] = molecular target: T4, Ubiquitin-conjugating enzyme E2 N (Homo sapiens, UniProt P61088); assay type: functional
T4 sequence (P61088 whole entry): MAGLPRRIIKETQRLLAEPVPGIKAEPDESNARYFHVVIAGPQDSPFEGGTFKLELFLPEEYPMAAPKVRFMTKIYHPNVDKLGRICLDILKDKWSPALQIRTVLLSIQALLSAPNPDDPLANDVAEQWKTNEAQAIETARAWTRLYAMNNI

[6] = NIH-3T3 fibroblast cytotoxicity, dose response, cytotoxicity control, cell-based, fluorescence, Alamar Blue, secondary assay (AID 2327); assay type: functional;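 note: NIH-3T3 mouse fibroblasts cultured with fluconazole at 8 µg/mL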
[7] = molecular target: T4, Ubiquitin-conjugating enzyme E2 N; assay type: functional; remark: listed apart in the source
[8] = molecular target: T5, Apoptotic protease-activating factor 1 (Homo sapiens, UniProt O14727); assay type: functional
T5 sequence (O14727 whole entry): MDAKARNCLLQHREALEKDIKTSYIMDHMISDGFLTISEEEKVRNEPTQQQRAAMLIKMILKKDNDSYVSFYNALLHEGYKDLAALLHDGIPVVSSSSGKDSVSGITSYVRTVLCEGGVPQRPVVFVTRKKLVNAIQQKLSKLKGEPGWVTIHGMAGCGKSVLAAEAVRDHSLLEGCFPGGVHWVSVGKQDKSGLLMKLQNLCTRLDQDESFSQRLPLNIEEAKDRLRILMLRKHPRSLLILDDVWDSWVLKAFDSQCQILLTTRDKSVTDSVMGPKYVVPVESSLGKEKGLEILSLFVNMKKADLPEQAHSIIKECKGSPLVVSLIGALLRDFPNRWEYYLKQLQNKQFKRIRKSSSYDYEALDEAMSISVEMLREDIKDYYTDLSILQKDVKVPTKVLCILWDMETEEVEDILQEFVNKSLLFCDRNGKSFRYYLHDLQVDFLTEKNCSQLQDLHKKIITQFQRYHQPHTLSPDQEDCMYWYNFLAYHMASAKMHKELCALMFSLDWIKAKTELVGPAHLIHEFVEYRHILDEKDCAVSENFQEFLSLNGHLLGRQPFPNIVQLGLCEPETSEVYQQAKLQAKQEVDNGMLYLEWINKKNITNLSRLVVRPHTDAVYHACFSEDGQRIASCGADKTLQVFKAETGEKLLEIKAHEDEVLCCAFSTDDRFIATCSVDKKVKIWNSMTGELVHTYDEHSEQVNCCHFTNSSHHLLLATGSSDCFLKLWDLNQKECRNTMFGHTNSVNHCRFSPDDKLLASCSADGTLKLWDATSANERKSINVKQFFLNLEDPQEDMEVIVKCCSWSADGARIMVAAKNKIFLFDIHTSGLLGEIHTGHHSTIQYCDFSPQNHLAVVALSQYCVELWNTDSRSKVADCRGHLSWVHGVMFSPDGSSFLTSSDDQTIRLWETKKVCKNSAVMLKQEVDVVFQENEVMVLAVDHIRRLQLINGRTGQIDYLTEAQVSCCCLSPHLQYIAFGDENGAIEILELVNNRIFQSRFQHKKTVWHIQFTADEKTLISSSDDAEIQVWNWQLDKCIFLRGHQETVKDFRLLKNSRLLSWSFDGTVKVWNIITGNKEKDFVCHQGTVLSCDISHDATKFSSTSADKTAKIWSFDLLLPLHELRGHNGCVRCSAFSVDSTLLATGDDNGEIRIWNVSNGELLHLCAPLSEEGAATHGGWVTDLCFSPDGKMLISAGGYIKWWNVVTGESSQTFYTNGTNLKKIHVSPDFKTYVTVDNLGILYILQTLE

[9] = molecular target: Glucose-6-phosphate 1-dehydrogenase (Homo sapiens, UniProt P11413); assay: inhibition of Homo sapiens G6PD, dose series – biochemical, fluorescence, selectivity assay for P. falciparum G6PD inhibitor project, dose response (AID 504792); assay type: functional
Chain of Glucose-6-phosphate 1-dehydrogenase (P11413 whole entry): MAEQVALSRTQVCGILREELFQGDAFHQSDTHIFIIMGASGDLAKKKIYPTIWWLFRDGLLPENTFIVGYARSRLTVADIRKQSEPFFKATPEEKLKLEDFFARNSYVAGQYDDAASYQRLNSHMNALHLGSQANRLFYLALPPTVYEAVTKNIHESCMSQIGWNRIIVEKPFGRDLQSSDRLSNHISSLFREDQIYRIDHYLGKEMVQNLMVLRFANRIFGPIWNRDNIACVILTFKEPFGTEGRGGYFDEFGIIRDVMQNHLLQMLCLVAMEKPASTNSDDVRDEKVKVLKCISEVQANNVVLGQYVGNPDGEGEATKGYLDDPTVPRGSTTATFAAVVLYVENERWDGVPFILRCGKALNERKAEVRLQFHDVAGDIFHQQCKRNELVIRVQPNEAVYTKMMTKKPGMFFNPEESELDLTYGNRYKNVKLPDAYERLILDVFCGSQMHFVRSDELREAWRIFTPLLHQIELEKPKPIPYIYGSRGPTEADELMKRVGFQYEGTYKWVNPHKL

Escherichia coli = assay: microbe, parasite or virus in culture
Streptococcus = assay: GAS UMAA2166 growth inhibition – luminescence, BacTiterGlo, counter-screen for streptokinase expression inhibitor project, dose response (AID 1915); assay type: functional, organism-based;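 note: potency for reduction of bacterial viability or growth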
[10] = tested on: Streptococcus sp. 'group A'; assay: Streptococcus pyogenes SK(-)GAS viability under kanamycin – luminescence, BacTiterGlo, confirmation, counter-screen for streptokinase expression inhibitor project, dose response (AID 1900); assay type: functional, organism-based
[11] = molecular target: T6, Heat shock factor protein 1 (Mus musculus, UniProt P38532); assay: decrease of HSF1-responsive luciferase luminescence – cell-based, NIH3T3, dose retest, confirmation (AID 2382); assay type: functional;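 note: NIH3T3 fibroblasts with HSF1-driven luciferase reporter stressed by proteasome inhibitor MG132; luminescence from HSF1-driven luciferase expression after 8 hours of MG132 stress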
T6 sequence (P38532 whole entry): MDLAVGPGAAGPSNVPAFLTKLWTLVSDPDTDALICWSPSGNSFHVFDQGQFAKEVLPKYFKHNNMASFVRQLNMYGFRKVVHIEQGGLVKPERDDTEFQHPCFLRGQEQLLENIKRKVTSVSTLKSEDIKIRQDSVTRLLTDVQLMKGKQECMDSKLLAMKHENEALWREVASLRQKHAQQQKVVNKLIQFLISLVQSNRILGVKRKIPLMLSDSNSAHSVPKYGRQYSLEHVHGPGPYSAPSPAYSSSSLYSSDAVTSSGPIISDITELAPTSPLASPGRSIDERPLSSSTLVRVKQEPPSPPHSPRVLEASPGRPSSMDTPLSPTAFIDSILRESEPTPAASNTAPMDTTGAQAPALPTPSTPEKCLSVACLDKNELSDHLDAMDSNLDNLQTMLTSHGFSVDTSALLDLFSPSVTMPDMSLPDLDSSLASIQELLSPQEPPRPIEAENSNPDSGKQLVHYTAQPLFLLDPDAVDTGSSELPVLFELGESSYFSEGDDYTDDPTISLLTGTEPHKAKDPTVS

[12] = viability of uninfected HEp-2 cells – cell-based, HTS, cytotoxicity control for RSV inhibitor project, dose response (AID 2410); assay type: functional; conditions: human respiratory syncytial virus

- EC50 [1]: > 92.5 µM (inactive)
- EC50 (Mu-type opioid receptor): > 92.5 µM (inactive)
- EC50 [2]: > 92.5 µM (inactive)
SMILES: COc1ccccc1CN1CCN(C(CC(C)C)c2nnnn2Cc2cccs2)CC1 (stereo unspecified)

SMILES: CCCCNC(=O)N1CCN(c2ccnc3cc(Cl)ccc23)CC1
- AC50 (Candida albicans): 23 µM (active)

- IC50 (Cysteine protease ATG4B): 14.3 µM (active)
- IC50 (Phospholipase A2): 12.3 µM (active)
SMILES: O=C(O)CC/C(=C\c1ccc(Cl)c([N+](=O)[O-])c1)c1nc2ccccc2s1

- IC50 (Cysteine protease ATG4B): 14.8 µM (active)
- IC50 (Phospholipase A2): 0.605 µM (active)
SMILES: O=C1OC(c2cccs2)=N/C1=C\c1ccc(-c2cccc(Cl)c2)o1

SMILES: Cc1ccc2nc(-c3ccc(NC(S)=NC4CC(C)(C)NC(C)(C)C4)cc3)sc2c1
- AC50 [3]: 4.95 µM (active)
- IC50 (Protein skinhead-1): 35.1 µM (active)
- IC50 (Bcl-2-related protein A1): > 20 µM (inactive)
- EC50 [4]: > 38 µM (not active)
- IC50 [5]: > 20 µM (inactive)
- EC50 [6]: > 150 µM (inactive)
- IC50 [7]: 16.8 µM (active)
- IC50 [8]: 43.6 µM (active)
- IC50 [9]: > 80 µM (inactive)

SMILES: CCN(CC)S(=O)(=O)c1ccc(=O)n(CC(=O)N2Cc3ccccc3CC2C(N)=O)c1 (stereo unspecified)
- AC50 (Escherichia coli): 116 µM (active)

- EC50 [1]: > 92.5 µM (inactive)
- EC50 (Mu-type opioid receptor): > 92.5 µM (inactive)
- EC50 [2]: > 92.5 µM (inactive)
SMILES: CN(C)C(CNC(=O)c1ccc2ccccc2c1)c1ccco1 (stereo unspecified)

SMILES: COc1c(N2CCN(C(S)=NC3CC4CCC3C4)C(C)C2)c(F)cc2c(=O)c(C(=O)O)cn(C3CC3)c12 (stereo unspecified)
- EC50 (Streptococcus): 3.77 µM (active)
- EC50 [10]: 5.85 µM (active)
- EC50 [11]: 17 µM (active)
- AC50 (Escherichia coli): 2.64 µM (active)
- CC50 [12]: 9.91 µM (active)
